Laboratory results as given in patent US9408795B2, “Method for enhancing the growth and fullness of hair” (Avon Products, Inc., priority 2011, dated 2016).

Tested on: FGFR1 gene expression
Assay: PCR to assess FGFR1 gene expression in human dermal papilla cells
Format: cell-based
Conditions: 48-hour incubation, normalized to 18S, vs DMSO control
Description: Method: PCR to assess FGFR1 gene expression in human dermal papilla cells, following administration of L-4-Thiazolylalanine, Pouzolzia petandra, or cis-6-nonenol.
Human dermal papilla cells (Cell Applications, CA) were plated at 5000 cells/cm^2 in collagen-coated 6-well culture plates in the Papilla Cell Growth Medium (Cell Application, CA) overnight in humidified atmosphere of 5% CO2 at 37° C. When dermal papilla cells reached 80-90% confluence, the medium was replaced with fresh medium and the compounds (L-4-Thiazolylalanine, Pouzolzia petandra, or cis-6-nonenol) dissolved in DMSO were added to the wells in duplicate at a concentration of 0.002% or 0.001%. DMSO was used a vehicle control. Following 48-hour incubation, the medium was removed and the cells were collected in the Lysis/Binding Solution (Ambion, Tex.) after being washed with cold PBS.
Total RNA was extracted from dermal papilla cells by using the RNAqueous kit (Ambion, Tex.) according to the manufacture's instruction. RNA was quantified on the Nanodrop ND-1000 Spectrophotometer (NanoDrop Technologies, DE) and the confirmation of integrity was determined using the Agilent Bioanalyzer before RNA was further processed for cDNA preparation. […]
RNA abundance of FGFR1 was measured using quantitative Real-Time PCR. […] All samples were run in triplicate and normalized to 18S and expressed as a percentage of the control.

Structure (SMILES) | Percent Inhibition of FGFR1 Expression (0.001% (w/v)) [%] | Percent Inhibition of FGFR1 Expression (0.002% (w/v)) [%]
N[C@@H](Cc1cscn1)C(=O)O [L-4-Thiazolylalanine, 4-L-thiazolylalanine] | 59.13 | 
CC/C=C\CCCCCO [cis-6-nonenol] |  | 28.25
